Calls of active or inactive are those of the source. The calls are words filed in the database; no cut-off is given here. Residues, ends and D or L forms follow the SMILES beside them. *: point of attachment. Cbz = O=C(OCc1ccccc1)*; CH2F = FC*

Assay [1] in a line: Inhibition of death receptor signaling mediated necroptotic cell death in human Jurkat cell deficient in FADD assessed as cell viability after 30 hrs by ATP based viability assay in presence of TNFalpha.
The subject of assay [2] is Mus musculus. Briefly: Inhibition of necroptosis in icv dosed mouse middle cerebral artery occlusion induced ischemic injury model assessed as reduction of infarct volume drug administered 6 hrs postocclusion. The class given is functional, organism-based.
For assay [3], the system named is Mus musculus. Description: Inhibition of necroptosis in icv dosed mouse middle cerebral artery occlusion induced ischemic injury model assessed as reduction of infarct volume drug administered 4 hrs postocclusion. The class given is functional, organism-based.
The subject of assay [4] is Mus musculus. Briefly: Inhibition of necroptosis in icv dosed mouse middle cerebral artery occlusion induced ischemic injury model assessed as reduction of infarct volume drug administered 5 mins preocclusion. The assay is classed as functional, organism-based.
Assay [5] has as its system Mus musculus. Briefly: Inhibition of necroptosis in icv dosed mouse middle cerebral artery occlusion induced ischemic injury model assessed as improvement in neurological score drug administration after occlusion. The assay is classed as functional, organism-based.
In assay [6] the test system is Mus musculus. Description: Inhibition of necroptosis in icv dosed mouse middle cerebral artery occlusion induced ischemic injury model assessed as induction of LC3-II by Western blot method drug administered 4 hrs postocclusion. The class given is functional, organism-based.
Assay [7] deals with Mus musculus. Briefly: Inhibition of necroptosis in icv dosed mouse middle cerebral artery occlusion induced ischemic injury model assessed as induction of LC3-II by Western blot method drug administered 6hrs postocclusion. The assay is classed as functional, organism-based. (In general: In western blotting, separated proteins are transferred to a membrane and probed.)
Assay [8] deals with Mus musculus. Description: Inhibition of necroptosis in icv dosed mouse middle cerebral artery occlusion induced ischemic injury model assessed as reduction of infarct volume drug administered 2 hrs postocclusion. The assay is classed as functional, organism-based.
In assay [9] the test system is Mus musculus. Description: Inhibition of necroptosis in mouse middle cerebral artery occlusion induced ischemic injury model assessed as reduction of infarct volume at 2-4 mM, icv before occlusion. The assay is classed as functional, organism-based.
The test system of assay [10] is Mus musculus. Briefly: Inhibition of necroptosis in icv dosed mouse middle cerebral artery occlusion induced ischemic injury model assessed as induction of LC3-II after 26 hrs by Western blot method. The assay is classed as functional, organism-based.
Assay [11] relates to Mus musculus. Description: Inhibition of necroptosis in icv dosed mouse middle cerebral artery occlusion induced ischemic injury model assessed as induction of LC3-II after 8 hrs by Western blot method. The assay is classed as functional, organism-based.
Assay [12] has as its system Mus musculus. Description: Inhibition of necroptosis in icv dosed mouse middle cerebral artery occlusion induced ischemic injury model assessed as induction of LC3-II after 5 hrs by Western blot method. The assay is classed as functional, organism-based.
Assay [13] deals with Mus musculus. Description: Inhibition of necroptosis in mouse middle cerebral artery occlusion induced ischemic injury model assessed as reduction of infarct volume at 2-4 mM, icv after occlusion. The assay is classed as functional, organism-based.
The subject of assay [14] is Mus musculus. Description: Inhibition of caspase3 in icv dosed mouse middle cerebral artery occlusion induced ischemic injury model after 3 hrs by Western blot method drug administered before occlusion. The class given is functional, organism-based.
The subject of assay [15] is Mus musculus. Description: Inhibition of necroptosis in icv dosed mouse middle cerebral artery occlusion induced ischemic injury model assessed as improvement in neurological score drug administration before occlusion. The assay is classed as functional, organism-based.
The subject of assay [16] is Jurkat. Briefly: Ratio of compound IC50 to Nec-1 IC50 for human jurkat cells. The assay is classed as functional.
Assay [17] concerns Mus musculus. Briefly: Inhibition of necroptosis in icv dosed mouse middle cerebral artery occlusion induced ischemic injury model assessed as induction of LC3-II by Western blot method drug administered 8 hrs postocclusion. The class given is functional, organism-based.
Assay [18] relates to Mus musculus. Description: Inhibition of necroptosis in icv dosed mouse middle cerebral artery occlusion induced ischemic injury model assessed as reduction of infarct volume. The assay is classed as functional, organism-based.

`CN1C(=O)NC(Cc2c[nH]c3c(Cl)cccc23)C1=O` (configuration not stated): in [1], the IC50 (usually the concentration that inhibits the measured activity by half) was found to be 206 nM. For the same molecule, the inhibition result in [2] and in [3] was “Active” in each case.
For the molecule `CN1C(=O)C(Cc2c[nH]c3c(Cl)cccc23)NC1=S` (configuration not stated), the inhibition entry in assay [4], in assay [8] and in [2] was “Active” in each case. Further, the inhibition result in [5], in assay [9], in assay [13] and in assay [15] was “Dose-dependent effect” each time. Moreover, the result in [6], in [7], in [10], in [11], in [12] and in assay [17] was Active. In addition, the IC50 in assay [1] came out at 182 nM. Moreover, the inhibition result in assay [14] is “inactive”. Besides, the “fold change (FC)” value in [16] is 2.7.
Take `O=C1NC(=S)NC1Cc1c[nH]c2ccccc12` (configuration not stated): in assay [18], the inhibition result was “inactive”.
As to `CC(C)[C@H](NC(=O)OCc1ccccc1)C(=O)N[C@@H](C)C(=O)N[C@@H](CC(=O)O)C(=O)CF` (Cbz-Val-Ala-Asp-CH2F), the inhibition entry in [2] was “inactive”. In assay [14], the inhibition result was “Active”.
